Data as given in patent US6914045B2, “Glycopeptide antibiotics” (Wyeth Holdings Corporation, priority 2001, dated 2005).
Converted amounts (≈) assume the structure as drawn.

What was measured:
Assay in all cases: in vitro antibacterial evaluation, MIC by broth dilution
Type in all cases: cell-based
Enterococcus sp. = settings: broth dilution, 18 hours at 35° C.
Outline: (§1)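 Following National Committee for Clinical Laboratory Standards recommendations (M7-A2), susceptibility was measured by dilution in Muller-Hinton II […]. Bacteria were seeded at 5×10^5 CFU/mL against compound concentrations from 64 down to 0.06 μg/mL.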

Escherichia coli = settings: 18 hours at 35° C.
Outline: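 MIC = lowest antibiotic concentration preventing visible growth; inoculum 5×10^5 CFU/mL; drug range 64-0.06 μg/mL; Muller-Hinton II […]; NCCLS M7-A2 guidance.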

Staphylococcus sp. = settings: broth dilution, 18 hours at 35° C.
Outline: as §1

Streptococcus sp. = settings: broth dilution, 18 hours at 35° C.
Outline: as §1

MIC Enterococcus avium (GC 4558) (Enterococcus sp.; Enterococcus avium (GC 4558)): 32 µg/mL (≈ 23.2 µM)
MIC Enterococcus faecalis (ATCC 29212) (Enterococcus sp.; Enterococcus faecalis (ATCC 29212)): 32 µg/mL (≈ 23.2 µM)
MIC Enterococcus faecalis (GC 4553) (Enterococcus sp.; Enterococcus faecalis (GC 4553)): 32 µg/mL (≈ 23.2 µM)
MIC Enterococcus faecalis (GC 4554) (Enterococcus sp.; Enterococcus faecalis (GC 4554)): 32 µg/mL (≈ 23.2 µM)
MIC Enterococcus faecalis (GC 6189) (Enterococcus sp.; Enterococcus faecalis (GC 6189)): 32 µg/mL (≈ 23.2 µM)
MIC Enterococcus faecium (GC 2243) (Enterococcus sp.; Enterococcus faecium (GC 2243)): 32 µg/mL (≈ 23.2 µM)
MIC Enterococcus faecium (GC 4556) (Enterococcus sp.; Enterococcus faecium (GC 4556)): 32 µg/mL (≈ 23.2 µM)
MIC Enterococcus faecium (GC 4557) (Enterococcus sp.; Enterococcus faecium (GC 4557)): 8 µg/mL (≈ 5.8 µM)
MIC Enterococcus faecalis (ATCC 29212) (Enterococcus sp.; strain ATCC 29212): 32 µg/mL (≈ 23.2 µM)
MIC Enterococcus faecalis (GC 2242) (Enterococcus sp.; strain GC 2242): 16 µg/mL (≈ 11.6 µM)
MIC Enterococcus faecium (GC 2243) (Enterococcus sp.; strain GC 2243): 32 µg/mL (≈ 23.2 µM)
MIC Enterococcus faecalis (GC 2691) (Enterococcus sp.; strain GC 2691): 32 µg/mL (≈ 23.2 µM)
MIC Enterococcus faecalis (GC 3059) (Enterococcus sp.; strain GC 3059): 32 µg/mL (≈ 23.2 µM)
MIC Enterococcus faecalis (GC 4552) (Enterococcus sp.; strain GC 4552): 32 µg/mL (≈ 23.2 µM)
MIC Enterococcus faecalis (GC 4553) (Enterococcus sp.; strain GC 4553): 32 µg/mL (≈ 23.2 µM)
MIC Enterococcus faecalis (GC 4554) (Enterococcus sp.; strain GC 4554): 32 µg/mL (≈ 23.2 µM)
MIC Enterococcus faecium (GC 4556) (Enterococcus sp.; strain GC 4556): 32 µg/mL (≈ 23.2 µM)
MIC Enterococcus faecium (GC 4557) (Enterococcus sp.; strain GC 4557): 8 µg/mL (≈ 5.8 µM)
MIC Enterococcus avium (GC 4558) (Enterococcus sp.; strain GC 4558): 32 µg/mL (≈ 23.2 µM)
MIC Enterococcus faecalis (GC 6189) (Enterococcus sp.; strain GC 6189): 32 µg/mL (≈ 23.2 µM)
MIC Escherichia coli (ATCC 25922) (Escherichia coli; Escherichia coli (ATCC 25922)): >64 µg/mL
MIC Escherichia coli (GC 4559) (Escherichia coli; Escherichia coli (GC 4559)): >64 µg/mL
MIC Escherichia coli (GC 4560) (Escherichia coli; Escherichia coli (GC 4560)): 2 µg/mL (≈ 1.45 µM)
MIC Coagulase Negative Staphylococcus (GC 4547) (Staphylococcus sp.): 4 µg/mL (≈ 2.9 µM)
MIC Coagulase Negative Staphylococcus (GC 4548) (Staphylococcus sp.): 2 µg/mL (≈ 1.45 µM)
MIC Coagulase Negative Staphylococcus (GC 4549) (Staphylococcus sp.): 2 µg/mL (≈ 1.45 µM)
MIC Coagulase Negative Staphylococcus (GC 4551) (Staphylococcus sp.): 8 µg/mL (≈ 5.8 µM)
MIC Coagulase Negative Staphylococcus (GC 6257) (Staphylococcus sp.): 2 µg/mL (≈ 1.45 µM)
MIC Staphylococcus aureus (ATCC 29213) (Staphylococcus sp.): 4 µg/mL (≈ 2.9 µM)
MIC Staphylococcus aureus (GC 1131) (Staphylococcus sp.): 8 µg/mL (≈ 5.8 µM)
MIC Staphylococcus aureus (GC 3051) (Staphylococcus sp.): 2 µg/mL (≈ 1.45 µM)
MIC Staphylococcus aureus (GC 3053) (Staphylococcus sp.): 8 µg/mL (≈ 5.8 µM)
MIC Staphylococcus aureus (GC 4541) (Staphylococcus sp.): 4 µg/mL (≈ 2.9 µM)
MIC Staphylococcus aureus (GC 4542) (Staphylococcus sp.): 4 µg/mL (≈ 2.9 µM)
MIC Staphylococcus aureus (GC 4544) (Staphylococcus sp.): 4 µg/mL (≈ 2.9 µM)
MIC Staphylococcus aureus (GC 4545) (Staphylococcus sp.): 4 µg/mL (≈ 2.9 µM)
MIC Staphylococcus aureus-SMITH (GC 4543) (Staphylococcus sp.): 4 µg/mL (≈ 2.9 µM)
MIC Staphylococcus aureus (ATCC 29213) (Staphylococcus sp.; strain ATCC 29213): 4 µg/mL (≈ 2.9 µM)
MIC Staphylococcus aureus (GC 1131) (Staphylococcus sp.; strain GC 1131): 8 µg/mL (≈ 5.8 µM)
MIC Staphylococcus aureus (GC 3051) (Staphylococcus sp.; strain GC 3051): 2 µg/mL (≈ 1.45 µM)
MIC Staphylococcus aureus (GC 3053) (Staphylococcus sp.; strain GC 3053): 8 µg/mL (≈ 5.8 µM)
MIC Staphylococcus aureus (GC 4541) (Staphylococcus sp.; strain GC 4541): 4 µg/mL (≈ 2.9 µM)
MIC Staphylococcus aureus (GC 4542) (Staphylococcus sp.; strain GC 4542): 4 µg/mL (≈ 2.9 µM)
MIC Staphylococcus aureus (GC 4544) (Staphylococcus sp.; strain GC 4544): 4 µg/mL (≈ 2.9 µM)
MIC Staphylococcus aureus (GC 4545) (Staphylococcus sp.; strain GC 4545): 4 µg/mL (≈ 2.9 µM)
MIC Coagulase Negative Staphylococcus (GC 4547) (Staphylococcus sp.; strain GC 4547): 4 µg/mL (≈ 2.9 µM)
MIC Coagulase Negative Staphylococcus (GC 4548) (Staphylococcus sp.; strain GC 4548): 2 µg/mL (≈ 1.45 µM)
MIC Coagulase Negative Staphylococcus (GC 4549) (Staphylococcus sp.; strain GC 4549): 2 µg/mL (≈ 1.45 µM)
MIC Coagulase Negative Staphylococcus (GC 4551) (Staphylococcus sp.; strain GC 4551): 8 µg/mL (≈ 5.8 µM)
MIC Coagulase Negative Staphylococcus (GC 6257) (Staphylococcus sp.; strain GC 6257): 2 µg/mL (≈ 1.45 µM)
MIC Staphylococcus aureus-SMITH (GC 4543) (Staphylococcus sp.; strain SMITH GC 4543): 4 µg/mL (≈ 2.9 µM)
MIC Streptococcus pneumoniae (ATCC 6301) (Streptococcus sp.; strain ATCC 6301): 1 µg/mL (≈ 0.725 µM)
MIC Streptococcus pneumoniae (GC 1894) (Streptococcus sp.; strain GC 1894): 0.5 µg/mL (≈ 0.362 µM)
MIC Streptococcus pyogenes (GC 4563) (Streptococcus sp.; strain GC 4563): 1 µg/mL (≈ 0.725 µM)
MIC Streptococcus agalactiae (GC 4564) (Streptococcus sp.; strain GC 4564): 2 µg/mL (≈ 1.45 µM)
MIC Streptococcus pneumoniae (GC 4565) (Streptococcus sp.; strain GC 4565): 1 µg/mL (≈ 0.725 µM)
SMILES: CCC(C)C(=O)OC1C(CO)OC(OC2C(CO)OC(Oc3ccc(CC4NC(=O)C(C(C)c5ccccc5)NC(=O)CNC(=O)C(CO)NC(=O)C(C(O)C5CNC(=N)N5C5OC(CO)C(O)C(O)C5O)NC(=O)C(C(O)C5CNC(=N)N5)NC4=O)cc3)C(O)C2O)C(O)C1O (stereo not drawn) [Example 278c, Cyclo[glycyl-β-methylphenylalanyl-O-[4-O-[4-O-(2-methylbutanoyl)hexopyranosyl]hexopyranosyl]tyrosyl-3-(2-iminoimidazolidin-4-yl)seryl-3-(3-hexopyranosyl-2-iminoimidazolidin-4-yl)serylseryl]]
MIC Staphylococcus haemolyticus (GC 4546) (Staphylococcus sp.): 2 µg/mL (≈ 1.45 µM)
MIC Staphylococcus haemolyticus (GC 4546) (Staphylococcus sp.; strain GC 4546): 2 µg/mL (≈ 1.45 µM)
